Source: ChEMBL document CHEMBL4610081, “Anti-inflammatory Metabolites from Chaetomium nigricolor” (J Nat Prod, 2020)
Activity calls are given as the source filed them. The calls are words filed in the database; no cut-off is given here.

System: RAW264.7
Experiment: Antiinflammatory activity against mouse RAW264.7 cells assessed as inhibition of LPS-induced NO production preincubated for 3 hrs followed by LPS-stimulation and measured after 24 hrs by Griess reagent based assay
Assay type: functional, cell-based

Compound | Activity
NC(=O)c1coc(Cc2ccccc2)cc1=O | inactive
O=C(O)c1ccc(CO)o1 | inactive
